One series deals with HepG2. Briefly: Cell proliferation assay (CCK8), HepG2. Conditions: Homo sapiens, HepG2; cells incubated with compounds for 24 h; CCK8. The series is classed as cell-based. As to the method: (§1) CCK8 is much more convenient and helpful than MTT for analyzing cell proliferation, because it can be reduced to soluble formazan by dehydrogenase in mitochondria and has little toxicity to cells. Cell proliferation was determined using CCK8 dye (Beyotime Inst. Biotech., Nanjing, China) according to the manufacturer's instructions. Briefly, 1–5 × 10^3 cells per well were seeded on a 96-well plate, and grown at 37 °C for 12 h. Subsequently, cells were treated with all synthesized compounds at increasing concentrations in the presence of 10% FBS for 24 h. After addition of 10 μL CCK8 dyeto each well, cells were incubated at 37 °C for 2 h and plates were read on a Victor-V multilabel counter (Perkin-Elmer, Männedorf, Switzerland) using the default […]. Percent inhibition or IC50 values of compounds were calculated by comparison with DMSO-treated control wells.

A further series concerns A431. As to the kind of experiment: Cell proliferation assay (CCK8), A431. Type of series: cell-based. Conditions: Homo sapiens, A-431, cells incubated with compounds for 24 h. The procedure:
as §1

The test system of a further series is Hela. As to the kind of experiment: Cell proliferation assay (CCK8), Hela. The series is classed as cell-based. To be noted: Homo sapiens, cells incubated with compounds for 24 h. The procedure: as §1
A further series addresses T1, EGFR (Homo sapiens, UniProt P00533).
T1 construct: EGFR cytoplasmic domain (EGFR-CD, amino acids 645–1186); (His)6 (N); made in house; host or cells: Sf-9 insect cells (baculovirus)
Briefly: EGFR kinase autophosphorylation assay (DELFIA/Time Resolved Fluorometry). The series is classed as biochemical. Conditions: enzyme incubated with compounds for 70 min. As to the method: A sequence that encodes (His)6 was located at the 5' upstream to the EGFR sequences. Sf-9 cells were infected for 3 days for protein expression. Sf-9 cell pellets were solubilized at 0 °C in a buffer at pH 7.4 containing 50 mM HEPES, 10 mM NaCl, 1% Triton, 10 μM ammonium molybdate, 100 μM sodium vanadate, 10 μg/mL aprotinin, 10 μg/mL leupeptin, 10 μg/mL pepstatin, and 16 μg/mL benzamidine HCl for 20 min followed by 20 min centrifugation. Crude extract supernatant was passed through an equilibrated Ni-NTA superflow packed column and washed with 10 mM and then 100 mM imidazole to remove nonspecifically bound material. Histidine tagged proteins were eluted with 250 and 500 mM imidazole and dialyzed against 50 mM NaCl, 20 mM HEPES, 10% glycerol, and 1 μg/mL each of aprotinin, leupeptin, and pepstatin for 2 h. The entire purification procedure was performed at 4 °C or on ice.
EGFR kinase assays was set up to assess the level of autophosphorylation based on DELFIA/Time Resolved Fluorometry. […] In each well, 10 μL compound was incubated with 10 μL (5 ng for EGFR) recombinant enzyme (1:80 dilution in 100 mM HEPES) for 10 min at room temperature. Then, 10 μL of 5× buffer (containing 20 mM HEPES, 2 mM MnCl2, 100 μM Na3VO4, and 1 mM DTT) and 20 μL of 0.1 mM ATP-50 mM MgCl2 were added for 1 h. Positive and negative controls were included in each plate by incubation of enzyme with or without ATP-MgCl2.
At the end of incubation, liquid was aspirated, and plates were washed three times with wash buffer. A 75 μL (400 ng) sample of europium labeled anti-phosphotyrosine antibody was added to each well for another 1 h of incubation. After washing, enhancement solution was added and the signal was detected by Victor (Wallac Inc., Männedorf, Switzerland) with excitation at 340 nm and emission at 615 nm. The percentage of autophosphorylation inhibition by the compounds was calculated using the following equation: 100% − [[…]] (1)
The IC50 was obtained from curves of percentage inhibition with eight concentrations of compound.

In general, IC50 refers to the midpoint of a concentration-inhibition curve. One may read the melting point as the temperature of the solid-liquid transition.

T1 sequence (P00533 669-1210): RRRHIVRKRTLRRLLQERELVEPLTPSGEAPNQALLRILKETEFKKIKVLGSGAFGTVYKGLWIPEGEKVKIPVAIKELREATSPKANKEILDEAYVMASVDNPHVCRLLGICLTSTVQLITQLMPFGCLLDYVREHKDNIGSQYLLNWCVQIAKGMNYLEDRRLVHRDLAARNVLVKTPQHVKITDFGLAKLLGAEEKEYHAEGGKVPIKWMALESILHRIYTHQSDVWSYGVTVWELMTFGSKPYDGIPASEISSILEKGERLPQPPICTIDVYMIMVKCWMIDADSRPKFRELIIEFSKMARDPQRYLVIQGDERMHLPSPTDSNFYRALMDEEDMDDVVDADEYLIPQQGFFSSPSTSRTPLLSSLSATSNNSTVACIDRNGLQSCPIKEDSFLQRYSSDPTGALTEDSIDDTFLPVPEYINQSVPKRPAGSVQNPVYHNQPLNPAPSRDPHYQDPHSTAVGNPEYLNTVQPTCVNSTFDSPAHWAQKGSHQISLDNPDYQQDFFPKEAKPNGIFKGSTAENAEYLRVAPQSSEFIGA

In turn, `O=C(/C=C/c1ccc2c(c1)OCCCCO2)Nc1cccc(F)c1` [Compound D17, (E)-N-(3-fluorophenyl)-3-(2,3,4,5-tetrahydrobenzo[b][1,4]dioxocin-8-yl)acrylamide] registered a melting point of 116 to 117 °C. In addition, the half-maximal inhibitory concentration (IC50) in the series on HepG2 stood at 7.9 µM. Further, the IC50 in the series on A431 turned out to be 21.6 µM. Also, the IC50 in the series with Hela came out at 19.5 µM.

`COc1ccc(NC(=O)/C=C/c2ccc3c(c2)OCCCCO3)cc1OC` [Compound D3, (E)-N-(3,4-dimethoxyphenyl)-3-(2,3,4,5-tetrahydrobenzo[b][1,4]dioxocin-8-yl)acrylamide] displayed a melting point of 171 to 172 °C. Besides, the IC50 in the series with HepG2 is 10.2 µM. In the series on A431, the IC50 was determined as 8.96 µM. For the same compound, the IC50 with Hela is 19.6 µM.

Consider `O=C(/C=C/c1ccc2c(c1)OCCCCO2)Nc1ccccc1Cl` [Compound D11, (E)-N-(2-chlorophenyl)-3-(2,3,4,5-tetrahydrobenzo[b][1,4]dioxocin-8-yl)acrylamide], for which the melting point lay in the range of 127 to 128 °C. In addition, the IC50 with HepG2 was 4.94 µM. Moreover, the IC50 on EGFR is 8.97 µM. Further, the IC50 in the series on A431 was 18.9 µM. Further, the IC50 in the series with Hela was determined as 16.7 µM.

Compound `COc1cc(NC(=O)/C=C/c2ccc3c(c2)OCCCCO3)cc(OC)c1OC` [Compound D6, (E)-3-(2,3,4,5-tetrahydrobenzo[b][1,4]dioxocin-8-yl)-N-(3,4,5-trimethoxyphenyl)acrylamide] returned a melting point of 145 to 146 °C. The 50% inhibitory concentration (IC50) in the series on HepG2 was 13.2 µM. Further, the IC50 in the series on A431 was found to be 11.7 µM. Further, the IC50 in the series on Hela was determined as 25.7 µM.

In turn, `O=C(/C=C/c1ccc2c(c1)OCCCCO2)Nc1ccccc1[N+](=O)[O-]` [Compound D2, (E)-N-(2-nitrophenyl)-3-(2,3,4,5-tetrahydrobenzo[b][1,4]dioxocin-8-yl)acrylamide] displayed a melting point of 119 to 120 °C. Moreover, the IC50 in the series on HepG2 worked out at 9.4 µM. Besides, the IC50 in the series with A431 was 24.7 µM. Further, the IC50 in the series with Hela worked out at 28.2 µM.

Consider `COc1ccc(OC)c(NC(=O)/C=C/c2ccc3c(c2)OCCCCO3)c1` [Compound D5, (E)-N-(2,5-dimethoxyphenyl)-3-(2,3,4,5-tetrahydrobenzo[b][1,4]dioxocin-8-yl)acrylamide], for which the melting point lay in the range of 110 to 111 °C. The IC50 in the series with HepG2 came out at 10.5 µM. Also, the IC50 in the series on A431 was determined as 9.31 µM. Also, the IC50 in the series with Hela stood at 21.4 µM.

`Cc1cccc(NC(=O)/C=C/c2ccc3c(c2)OCCCCO3)c1` [Compound D12, (E)-3-(2,3,4,5-tetrahydrobenzo[b][1,4]dioxocin-8-yl)-N-m-tolylacrylamide] came in with a melting point of 112 to 113 °C. Besides, the IC50 in the series with HepG2 worked out at 6.28 µM. The IC50 on EGFR amounted to 12 µM. In addition, in the series on A431, the IC50 amounted to 14.2 µM. In addition, the IC50 in the series with Hela was 10.8 µM.

Turning to `C#Cc1cccc(Nc2ncnc3cc(OCCOC)c(OCCOC)cc23)c1` [Erlotinib, reference compound], the IC50 in the series with HepG2 worked out at 0.08 µM; in the series with A431, 0.04 µM.

Take `O=C(/C=C/c1ccc2c(c1)OCCCCO2)NCc1ccccc1F` [Compound D15, (E)-N-(2-fluorobenzyl)-3-(2,3,4,5-tetrahydrobenzo[b][1,4]dioxocin-8-yl)acrylamide]: the melting point was 86 to 87 °C. Also, the IC50 with HepG2 came out at 1.48 µM. Besides, the IC50 on EGFR turned out to be 2.18 µM. In addition, the IC50 in the series on A431 worked out at 17.8 µM. Besides, in the series with Hela, the IC50 was 5.15 µM.

For `Cc1ccc(Cl)cc1NC(=O)/C=C/c1ccc2c(c1)OCCCCO2` [Compound D13, (E)-N-(5-chloro-2-methylphenyl)-3-(2,3,4,5-tetrahydrobenzo[b][1,4]dioxocin-8-yl)acrylamide], the melting point lay in the range of 107 to 108 °C. For the same compound, in the series on HepG2, the IC50 came out at 15.2 µM. For the same compound, the IC50 with A431 is 14.1 µM. In the series on Hela, the IC50 came to 24.3 µM.

The compound `O=C(/C=C/c1ccc2c(c1)OCCCCO2)Nc1ccc(Br)cc1` [Compound D16, (E)-N-(4-bromophenyl)-3-(2,3,4,5-tetrahydrobenzo[b][1,4]dioxocin-8-yl)acrylamide] yielded a melting point of 107 to 108 °C. For the same compound, the IC50 in the series on HepG2 was 2.38 µM. The IC50 at EGFR was 3.52 µM. The IC50 with A431 turned out to be 7.96 µM. The IC50 with Hela stood at 9.04 µM.

As to `COc1cc(NC(=O)/C=C/c2ccc3c(c2)OCCCCO3)cc(OC)c1` [Compound D4, (E)-N-(3,5-dimethoxyphenyl)-3-(2,3,4,5–tetrahydrobenzo[b][1,4]dioxocin-8-yl)acrylamide], the melting point fell in the range of 115 to 116 °C. Moreover, in the series on HepG2, the IC50 is 11.1 µM. Moreover, the IC50 in the series with A431 was 10 µM. Moreover, in the series with Hela, the IC50 turned out to be 23.7 µM.

For `COc1cccc(NC(=O)/C=C/c2ccc3c(c2)OCCCCO3)c1` [Compound D7, (E)-N-(3-methoxyphenyl)-3-(2,3,4,5-tetrahydrobenzo[b][1,4]dioxocin-8-yl)acrylamide], the melting point fell in the range of 104 to 105 °C. The IC50 with HepG2 is 3.16 µM. Moreover, the IC50 at EGFR came to 6.78 µM. Also, in the series on A431, the IC50 was determined as 12.6 µM. Besides, the IC50 in the series with Hela was found to be 8.71 µM.

Compound `O=C(/C=C/c1ccc2c(c1)OCCCCO2)Nc1ccc(Br)cc1F` [Compound D14, (E)-N-(4-bromo-2-fluorophenyl)-3-(2,3,4,5-tetrahydrobenzo[b][1,4]dioxocin-8-yl)acrylamide] gave a melting point of 110 to 111 °C. Also, the IC50 with HepG2 came out at 9.03 µM. Further, the IC50 with A431 was 22.6 µM. Besides, in the series on Hela, the IC50 came to 30.8 µM.

Consider `O=C(O)/C=C/c1ccc(O)c(O)c1` [Caffeic acid], for which the results for the IC50 in the series with HepG2, with A431 and in the series with Hela were 225 µM, 93.5 µM and 544 µM, respectively.

Turning to `O=C(/C=C/c1ccc2c(c1)OCCCCO2)Nc1cccc(Cl)c1` [Compound D10, (E)-N-(3-chlorophenyl)-3-(2,3,4,5-tetrahydrobenzo[b][1,4]dioxocin-8-yl)acrylamide], the melting point was in the range of 109 to 110 °C. In the series on HepG2, the IC50 is 6.87 µM. Moreover, at EGFR, the IC50 was 12.4 µM. Also, the IC50 with A431 is 20 µM. In addition, the IC50 with Hela worked out at 18.5 µM.

With `O=C(/C=C/c1ccc2c(c1)OCCCCO2)Nc1ccc([N+](=O)[O-])cc1` [Compound D1, (E)-N-(4-nitrophenyl)-3-(2,3,4,5-tetrahydrobenzo[b][1,4]dioxocin-8-yl)acrylamide], the melting point is 125 to 126 °C. The IC50 in the series with HepG2 came out at 3.47 µM. Further, at EGFR, the IC50 is 7.25 µM. Moreover, the IC50 in the series with A431 was 16.6 µM. In the series with Hela, the half-maximal inhibitory concentration (IC50) stood at 13.6 µM.

Take `O=C(O)/C=C/c1ccc2c(c1)OCCCCO2` [C, (E)-3-(2,3,4,5-tetrahydrobenzo[b][1,4]dioxocin-8-yl)acrylic acid]: the IC50 in the series on HepG2 turned out to be 56 µM; in the series on A431 it was 41 µM; with Hela, 105 µM.

In turn, `COc1ccc(NC(=O)/C=C/c2ccc3c(c2)OCCCCO3)cc1` [Compound D8, (E)-N-(4-methoxyphenyl)-3-(2,3,4,5-tetrahydrobenzo[b][1,4]dioxocin-8-yl)acrylamide] came in with a melting point of 112 to 113 °C. In addition, the IC50 with HepG2 came to 0.95 µM. For the same compound, the IC50 at EGFR came to 0.85 µM. The IC50 in the series on A431 amounted to 7.42 µM. Moreover, the IC50 with Hela turned out to be 7.04 µM.
